The text below walks through data of patent publication US5840690A, “Regulation of cell proliferation and differentation using peptides” (priority 1995, dated 1998).

In assay [1] the test system is cultured human keratinocytes. Nature of the assay: Keratinocyte culture: counts of total cells, basal cells and cornified envelopes. Format: cell-based. As to the method: Keratinocytes were grown in culture as follows. NIH 3T3 cells were plated at 0.5×10^5 cells per 35-mm tissue-culture dish, and two days later were lethally irradiated with a cobalt-60 source (5000 rads). Keratinocytes were obtained from neonatal foreskin after overnight trypsinization at 4° C. and treatment with 0.02% EDTA. Keratinocytes were plated in 2 ml of serum-free medium per dish on the lethally irradiated 3T3 cells. Each experiment was performed on primary or secondary keratinocyte cultures obtained from different skin samples.
In addition, 1,25-(OH)2 D3 was tested, alone and in combination with PTH (7-34), and PTH (1-34) and PTH (7-34) were tested together.
Beginning at one week in culture, groups of triplicate plates of keratinocytes were incubated with the aforementioned compounds or vehicle alone. After one week of dosing, the medium was removed from each culture and centrifuged, and the pellet was resuspended for the counting of the desquamated floater cells. A hemacytometer was used to count the different cell types under a phase-contrast microscope. The attached cells were then trypsinized for 30-40 min with 0.1 EDTA and 0.1% trypsin and then neutralized with medium. The keratinocytes were pelleted and resuspended in a known volume of medium. Duplicate aliquots were taken for counting the basal (small, rounded) and squamous (larger, irregular-shaped, flattened) cells. The remaining cells were pelleted and treated with 10 mM Tris-HCl (pH 7.4) with 1% beta-mercaptoethanol and 1% sodium dodecyl sulfate (SDS) at room temperature for 10 min. Only cells with cornified envelopes were present after this treatment.
Each culture was thus evaluated for its total cell content, number of basal cells, and cornified envelopes, as described above.

The subject of assay [2] is wounds made through the skin with a 6 mm dermal biopsy punch. Nature of the assay: In vivo skin punch assay. Further details: species or system Sprague-Dawley rats. Conditions: rats, 2.0 μg topically in normal saline, immediately after biopsy and each day for 3 days, FIG. 8. As to the method: Male Sprague-Dawley rats were anesthetized by intraperitoneal injection of sodium pentobarbital, their dorsal skin shaved, and wounds made through the skin with a 6 mm dermal biopsy punch. Immediately after the biopsy, and each subsequent day for 3 days, groups of rats received topically 2.0 μg of human PTH (1-34) in normal saline or human PTH (7-34) in normal saline; a control group received normal saline without peptide. Four rats from each group were killed by asphyxiation in a chamber of carbon dioxide, and the extent of wound healing was evaluated as follows. Wounds were photographed with the wound surface perpendicular to the axis of the lens. After development of the film, wound images were projected on to paper at a fixed distance, traced with a pencil, and cut out with sharp scissors. The relative sizes of the wounds were assessed by weighing the cut-out paper tracings. Percent healing was calculated from the average decrease in wound area for each group.

The subject of assay [3] is canine adenylate cyclase system. The following applies: cited from earlier work.

Turning to `CC[C@H](C)[C@H](NC(=O)[C@H](CCC(=O)O)NC(=O)[C@H](CO)NC(=O)[C@@H](NC(=O)[C@@H](N)CO)C(C)C)C(=O)N[C@@H](CCC(N)=O)C(=O)N[C@@H](CC(C)C)C(=O)N[C@@H](CCSC)C(=O)N[C@@H](Cc1c[nH]cn1)C(=O)N[C@@H](CC(N)=O)C(=O)N[C@@H](CC(C)C)C(=O)NCC(=O)N[C@@H](CCCCN)C(=O)N[C@@H](Cc1c[nH]cn1)C(=O)N[C@@H](CC(C)C)C(=O)N[C@@H](CC(N)=O)C(=O)N[C@@H](CO)C(=O)N[C@@H](CCSC)C(=O)N[C@@H](CCC(=O)O)C(=O)N[C@@H](CCCNC(=N)N)C(=O)N[C@H](C(=O)N[C@@H](CCC(=O)O)C(=O)N[C@@H](Cc1c[nH]c2ccccc12)C(=O)N[C@@H](CC(C)C)C(=O)N[C@@H](CCCNC(=N)N)C(=O)N[C@@H](CCCCN)C(=O)N[C@@H](CCCCN)C(=O)N[C@@H](CC(C)C)C(=O)N[C@@H](CCC(N)=O)C(=O)N[C@@H](CC(=O)O)C(=O)N[C@H](C(=O)N[C@@H](Cc1c[nH]cn1)C(=O)N[C@@H](CC(N)=O)C(=O)N[C@@H](Cc1ccccc1)C(=O)O)C(C)C)C(C)C` [PTH (1-34), Parathyroid Hormone (1-34), Human], in assay [1] (10^-7 and 10^-8 M), the “growth of human cultured keratinocytes” value is recorded as “inhibits growth” and the “terminal differentiation of human cultured keratinocytes” value is recorded as “induces terminal differentiation”. For the same compound, the “total number of cornified envelopes, percent of control” value in assay [1] (compound alone, FIGS. 6 and 7) is on record as “increased, in a dose-dependent manner”. Also, the “total number of basal cells” value in assay [1] (peptide alone at 10^-8 M and 10^-7 M, one week of dosing) was “significantly decreased”. Also, the “proliferation and terminal differentiation of cultured human keratinocytes (conclusion from the results)” value in assay [1] (peptide by itself) is “biologically effective in inhibiting the proliferation of cultured human keratinocytes and inducing terminal differentiation”. The “wound healing (percent healing from decrease in wound area)” value in assay [2] was “biologically effective in enhancing wound healing”. For the same compound, the “wound healing (percent healing from decrease in wound area)” value in assay [2] (listed as human PTH (1-34)) is reported as “enhance wound healing”.
In the case of “Parathyroid Hormone (1-34), Rat [Rat PTH (1-34)]”, in assay [3], the “activity relative to bovine PTH (1-34)” value is 2-4 fold and the “activity relative to human PTH (1-34)” value was 8-10 fold.
